Each structure is given as a SMILES string.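 Following 48 hours of exposure in 96-well plates, responses at five concentrations were used to interpolate endpoints linearly. TGI marks complete inhibition of growth.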

Common to all, as to test: NCI tumour cell line growth inhibition, 48 h
For assay [1], the system named is BT-549 breast.
Assay [2] has as its system HT29 colon.
For assay [3], the system named is IGROV1 ovarian.
For assay [4], the system named is MDA-MB-231 breast.
Assay [5] has as its system NCI-H522 lung.
The subject of assay [6] is SF-295 CNS.
Assay [7] relates to SW-620 colon.
Assay [8] concerns SK-MEL-2 melanoma.
In assay [9] the test system is A498 renal.
Assay [10] relates to 786-0 renal.
Assay [11] has as its system K-562 leukemia.
The subject of assay [12] is MDA-N.
Assay [13] deals with SNB-75 CNS.
The subject of assay [14] is SN12C renal.
For assay [15], the system named is SR leukemia.
Assay [16] has as its system OVCAR-4 ovarian.

On to `CCOP(=O)(OCC)/C(C#N)=C/c1cccn1CC(C)C`, for which the TGI in assay [1], in [2], in assay [3], in [4], in assay [5] and in [6] was greater than 100 µM each time. Also, the TGI in assay [7], in assay [8], in [9], in assay [10], in assay [11] and in [12] was greater than 100 µM throughout. Also, the TGI in assay [13], in assay [14] and in assay [15] was greater than 100 µM each time.
Take `O=C(CCCl)NNC1=NCCN1`: the TGI in [1], in [2], in assay [3], in assay [4], in [5] and in assay [6] was greater than 100 µM throughout. In addition, the TGI in [7], in assay [8], in assay [16], in assay [9], in assay [10] and in assay [11] was greater than 100 µM throughout. Further, the TGI in assay [12], in assay [13], in assay [14] and in assay [15] was greater than 100 µM in each case.
Take `O=C1C=C(NCCc2cc(Br)c(O)c(Br)c2)C(=O)c2ncccc21`: the TGI came to 5.07 µM in [1]; 7.36 µM in assay [2]; 6.31 µM in assay [3]; 20.3 µM in [4]; 6.1 µM in assay [5]; 2.79 µM in [6]. Moreover, the TGI in assay [7] was determined as 8.6 µM; in [8] it was 4.1 µM; in [16] it was 11.3 µM; in assay [9] it was 6.78 µM; in assay [10], 13.6 µM; in assay [11], 10 µM. In addition, the TGI in [12] is 1.23 µM; in [13], 3.13 µM; in assay [14], 2.95 µM; in [15], 7.31 µM.
Turning to `O=c1[nH]nc(Cc2ccc(Cl)cc2)n1/N=C\CC/C=N\n1c(Cc2ccc(Cl)cc2)n[nH]c1=O`, the TGI in assay [1] was greater than 83.2 µM; in assay [2] it was greater than 100 µM; in assay [3], 41.3 µM; in assay [4], greater than 58.4 µM; in [5], greater than 100 µM; in [6] it was greater than 78.1 µM. The TGI in assay [7] was greater than 100 µM; in assay [8], greater than 69.7 µM; in assay [16], greater than 100 µM; in assay [9], greater than 100 µM; in [10] it was greater than 53.5 µM; in assay [11] it was greater than 100 µM. In addition, the TGI was greater than 100 µM in assay [12], 23.1 µM in assay [13], greater than 100 µM in assay [14] and 14.8 µM in assay [15].
Turning to `CC(C)n1c2c([n+](C)c1/C=C/c1ccccc1)C(=O)c1ccccc1C2=O`, the TGI turned out to be 0.667 µM in assay [1]; 2.18 µM in [2]; 0.0688 µM in assay [3]; 0.884 µM in assay [4]; 0.15 µM in assay [5]; 2.52 µM in [6]. Further, the TGI in assay [7] amounted to 1.21 µM; in assay [8], 0.48 µM; in assay [16], 1 µM; in assay [9], 2.76 µM; in [10], 8.11 µM; in [11], 9.61 µM. For the same molecule, the TGI in assay [12] was 0.686 µM; in assay [13], 1.48 µM; in assay [14], 0.169 µM; in [15] it was greater than 21 µM.
On to `NCCCN1CCN(CC(=O)O)CCN(CCCN)CCN(CC(=O)O)CC1`, for which the TGI in [1] was greater than 100 µM; in [2], greater than 100 µM; in assay [3] it was greater than 100 µM; in [4] it was greater than 100 µM; in assay [5] it was greater than 84.2 µM; in [6], greater than 100 µM. Moreover, the TGI was greater than 100 µM in [7]; greater than 76.1 µM in assay [8]; greater than 100 µM in [16]; greater than 100 µM in assay [9]; greater than 85.3 µM in assay [10]; greater than 100 µM in [11]. Moreover, the TGI in [12], in assay [13], in [14] and in assay [15] was greater than 100 µM each time.
Regarding `CCOC(=O)CCC(NC(=O)c1ccc(OCc2nc3ccccc3n3cccc23)cc1)C(=O)OCC` (stereo unspecified), the TGI is greater than 100 µM in assay [1]; greater than 100 µM in assay [2]; greater than 100 µM in assay [3]; greater than 100 µM in assay [4]; 69.3 µM in [5]; greater than 100 µM in assay [6]. Also, the TGI in assay [7], in assay [8], in assay [16], in assay [9], in assay [10] and in assay [11] was greater than 100 µM throughout. The TGI in assay [12], in [13], in assay [14] and in assay [15] was greater than 100 µM each time.
On to `Cc1c2c(n(Cc3ccccn3)c1C)NN=C(C#N)S2(=O)=O`, for which the TGI in [1], in assay [2], in assay [3], in assay [4], in assay [5] and in assay [6] was greater than 100 µM throughout. For the same molecule, the TGI in assay [7], in assay [8], in assay [16], in assay [9], in assay [10] and in [12] was greater than 100 µM in each case. The TGI in assay [13], in assay [14] and in [15] was greater than 100 µM throughout.
On to `CCCCn1c2c(n(CCCC)c1=S)-c1c(n(CCCC)c(=S)n1CCCC)SSSS2`, for which the TGI in assay [1] is 28.1 µM; in assay [2] it was 7.91 µM; in assay [3], 4.2 µM; in assay [4], 2.28 µM; in [5], 0.274 µM; in assay [6] it was greater than 100 µM. Also, the TGI was 3.8 µM in assay [7]; 6.8 µM in assay [8]; 9.6 µM in assay [16]; greater than 100 µM in assay [9]; 19.4 µM in [10]; 23.2 µM in assay [12]. Also, the TGI is 37.7 µM in [13], 14.7 µM in assay [14] and greater than 100 µM in assay [15].
On to `COc1ccc(O)c(C=NCCCN=Cc2cc(OC)ccc2O)c1`, for which the TGI is greater than 100 µM in [1]; greater than 100 µM in assay [2]; greater than 100 µM in [3]; greater than 100 µM in assay [4]; greater than 100 µM in [5]; 51.1 µM in assay [6]. Besides, the TGI in assay [7], in [8], in [16], in assay [9], in assay [10] and in assay [11] was greater than 100 µM each time. Also, the TGI in assay [12] was greater than 100 µM; in assay [13], 64.7 µM; in assay [14], 83.5 µM; in assay [15], greater than 100 µM.
Regarding `Oc1c(C2=N[C@H]3CCCC[C@@H]3N2)ccc2ccccc12`, the TGI in assay [1], in assay [2], in assay [3], in assay [4], in assay [5] and in assay [7] was greater than 100 µM throughout. In addition, the TGI in [8], in [16], in assay [9], in assay [10], in assay [11] and in assay [12] was greater than 100 µM throughout. In addition, the TGI in assay [13], in [14] and in assay [15] was greater than 100 µM in each case.
On to `COc1ccccc1Cn1nc(OC)c2cc([N+](=O)[O-])ccc21`, for which the TGI in assay [1] was 46.2 µM; in [2] it was greater than 100 µM; in [3], greater than 100 µM; in [4], greater than 67.7 µM; in assay [5], greater than 81.3 µM; in assay [6], 20 µM. Moreover, the TGI is greater than 100 µM in [7]; greater than 57.5 µM in assay [8]; greater than 100 µM in assay [16]; 60.3 µM in [9]; greater than 84.7 µM in assay [10]; greater than 100 µM in [11]. The TGI is greater than 100 µM in assay [12], 18.7 µM in assay [13], greater than 100 µM in assay [14] and greater than 100 µM in assay [15].
Regarding `COc1cc2c(c3c1c(=O)c1ccccc1n3C)C=CC1(CCCCC1)O2`, the TGI in [1] is greater than 8.59 µM; in [2], greater than 10 µM; in [3], greater than 10 µM; in [4], greater than 10 µM; in [5], greater than 10 µM; in assay [6], 4.7 µM. Moreover, the TGI is greater than 10 µM in [7]; 9.69 µM in assay [8]; greater than 10 µM in assay [16]; greater than 9.61 µM in assay [9]; greater than 10 µM in [10]; 6.36 µM in assay [11]. The TGI was 8.08 µM in [12], 8.46 µM in assay [13], greater than 10 µM in assay [14] and 6.39 µM in [15].
On to `O=c1oc2ccc3ccccc3c2cc1-c1nc2ccccc2o1`, for which the TGI in [1] is greater than 61.4 µM; in assay [2], 48.4 µM; in assay [3] it was 30 µM; in assay [4], 35.6 µM; in [5] it was 59.4 µM; in assay [6] it was greater than 59.3 µM. Further, the TGI in assay [7] was 55.1 µM; in assay [8], 60.1 µM; in assay [16], 90.4 µM; in [9], greater than 77.5 µM; in assay [10], 42.2 µM; in [11] it was greater than 100 µM. For the same molecule, the TGI in assay [12] was greater than 54.4 µM; in assay [13], 40.7 µM; in assay [14], greater than 64.1 µM; in assay [15] it was greater than 85.6 µM.
Consider `CN(C)c1nc(-c2ccccc2)c(C(=O)c2c[nH]c3ccccc23)s1`, for which the TGI in assay [1] is greater than 100 µM; in assay [2] it was greater than 100 µM; in assay [3], greater than 44.7 µM; in assay [4], greater than 100 µM; in assay [5] it was 10.4 µM; in [6], greater than 100 µM. In addition, the TGI in assay [7] is greater than 100 µM; in assay [8] it was greater than 100 µM; in assay [16], greater than 100 µM; in assay [9], greater than 100 µM; in assay [10], greater than 47.6 µM; in [11], greater than 100 µM. Further, the TGI in [12] was 20.2 µM; in assay [13], 7.71 µM; in assay [14] it was greater than 100 µM; in assay [15], greater than 100 µM.
With `COc1ccc(/C=C/C(=O)N[C@@H]2C(=O)N3[C@@H]2SC(C)(C)[C@@H]3C(=O)O)cc1`, the TGI in assay [1], in assay [2], in [4], in assay [5], in assay [6] and in assay [7] was greater than 100 µM in each case. In addition, the TGI in assay [8], in assay [16], in assay [9], in assay [10], in assay [11] and in assay [12] was greater than 100 µM in each case. Further, the TGI in assay [13], in assay [14] and in assay [15] was greater than 100 µM throughout.
`N#CC1=C(N)OC(c2ccc([N+](=O)[O-])cc2)C1(C#N)C#N` (stereo unspecified): the TGI is 33.1 µM in assay [1]; 22.9 µM in assay [2]; 31.1 µM in assay [3]; 30.4 µM in assay [4]; 17.8 µM in assay [5]; greater than 71.3 µM in [6]. Further, the TGI in [7] was 33.9 µM; in assay [8] it was 23 µM; in [16] it was 33.7 µM; in [9], 27.8 µM; in assay [10], 25 µM; in assay [11], greater than 100 µM. Moreover, the TGI was 24.6 µM in [12], 44.6 µM in [13], 32.2 µM in assay [14] and 41.7 µM in [15].
Regarding `O=C(Cc1ccc(Cl)c(Cl)c1)N(CCc1ccc(Cl)c(Cl)c1)CCN1CCCC1`, the TGI in [1] is 7.04 µM; in assay [2], 3.56 µM; in assay [3], 3.27 µM; in assay [4], 3.26 µM; in [5] it was 3.3 µM; in assay [6] it was 3.84 µM. Moreover, the TGI turned out to be 3.36 µM in assay [8]; 5.28 µM in [16]; 3.45 µM in [9]; 3 µM in assay [10]; 3.66 µM in [11]; 3.15 µM in assay [12]. Also, the TGI was 4.31 µM in assay [13] and 2.98 µM in [15].

(Values after PubChem BioAssay (NCI).)
